Measurements published in publication PMC12154426, “TPP-Based Nanovesicles Kill MDR Neuroblastoma Cells and Induce Moderate ROS Increase, While Exerting Low Toxicity Towards Primary Cell Cultures: An In Vitro Study” (International Journal of Molecular Sciences, 2025).
Where two headings read alike, the source gives them in different places.

Assays:
[1] = tested on: HTLA ER; assay: MTS cell viability assay on HTLA ER NB cells; type: cell-based, human; conditions: for HTLA ER more tolerant to BPPB than HTLA 230: from IC50
Procedure: (§1) In this section, the strong anticancer effect of BPPB against ETO-sensitive HTLA 230 and multidrug-resistant (MDR) HTLA ER neuroblastoma (NB) cells previously reported was confirmed. Cell viability in HTLA 230 and HTLA ER cells exposed to increasing concentrations of BPPB for 24, 48, and 72 h was assessed by using the MTS essay, which is an efficient, eco- and user-friendly tool, commonly used to investigate the behaviour of cancer cells when exposed to specific treatments and how these treatments influence their growth and viability.
(§2) Following this, µM concentrations (x) were transformed in Log10 (x) (Figure 1e (HTLA 230) and Figure 1f (HTLA ER), traces with indicators and error bar). The nonlinear regression models of the Log10 (BPPB concentrations) vs. the normalized response (Hill Slope) shown in Figure 1e (HTLA 230) and Figure 1f (HTLA ER), traces without indicators, elaborated by GraphPad Prism software version 8.0.1 (GraphPad Software, Boston, MA, USA), gave us the IC50 values of BPPB for both cell populations at 24, 48, and 72 h of treatment.
(§3) HTLA 230 is a MYCN-amplified human stage-IV NB cell line, obtained from the G. Gaslini Institute, Genoa, Italy. The cytogenetic features of the HTLA 230 cell line include […] MYCN amplification, del(11)t(11;Y), balanced translocation t(1;17)(p36;q21), and dup(11p), which were previously described by Pezzolo et al.. Cells were periodically tested for mycoplasma contamination (Mycoplasma Reagent Set, Aurogene s.p.a, Pavia, Italy). After thawing and eight passages in the culture, cell morphology and proliferation were analyzed. […] Both cell populations were cultured in RPMI 1640 (Euroclone SpA, Pavia, Italy) supplemented with 10% fetal bovine serum (FBS; Euroclone, Pavia, Italy), 2 mM glutamine (Euroclone, Pavia, Italy), 1% penicillin/streptomycin (Euroclone, Pavia, Italy), 1% sodium pyruvate (Sigma-Aldrich, Sant Louis, MO, USA), and 1% amino acid solution (Sigma).
(§4) To determine the cytotoxic effects of BPPB, in vitro time- and dose-dependent experiments were carried out, as recently described. Briefly, cells were treated for 24, 48, and 72 h, with increasing concentrations (0.1–2.0 µM) of the compound. […] Cell cultures were carefully monitored before and during the experiments to ensure optimal cell density.
(§5) Cell viability was determined by using the CellTiter 96® AQueous One Solution Cell Proliferation MTS Assay (Promega, Madison, WI, USA), as previously described. MTS is a colorimetric method commonly used for determining cell viability. The cell survival rate, expressed as the cell viability percentage (%), was evaluated based on the experimental outputs of treated cells vs. the untreated ones (CTRs), and was calculated as follows: cell viability (%) = (OD treated cells − OD blank)/(OD untreated cells − OD blank) × 100%. IC50 values were calculated by GraphPad Prism 8.0.1 Software (GraphPad Software v8.0, San Diego, CA, USA), as detailed in the Results and Discussion in Section 2.

[2] = tested on: HTLA 230; assay: MTS cell viability assay on HTLA 230 NB cells; type: cell-based, human; conditions: for cytotoxic effects vs. HTLA 230 higher than vs. HTLA ER: from IC50 values
Procedure: as §1, §2, §3, §4, §5

Compound: c1ccc([P+](CCCCCCCCCCCC[P+](c2ccccc2)(c2ccccc2)c2ccccc2)(c2ccccc2)c2ccccc2)cc1 [BPPB, 1,1-(1,12-dodecanediyl)-bis-[1,1,1]-triphenyl phosphonium di-bromide]
- cell viability ([1]; 1.25 µM, 24 h): 42.5%
- cell viability ([1]; 1.25 µM, 72 h): 39.8%
- cell viability ([1]; 1.5 µM, 48 h): 39.4%
- cell viability ([1]; 2 µM, 24 h): 26.5%
- cell viability ([1]; 2 µM, 48 h): 33.1%
- cell viability ([1]; 2 µM, 72 h): 25.8%
- concentration causing significant reduction in viability of cells ([1]; 24 h): ≥ 0.75 µM
- HTLA ER more tolerant to BPPB than HTLA 230 ([1]; 24 h): 1.3 times
- IC50 ([1]; 24 h exposure, 0.1–2 µM, read-out: IC50 HTLA ER): 1.24 ± 0.061 µM
- concentration causing significant reduction in viability of cells ([1]; 48 h): ≥ 0.75 µM
- HTLA ER more tolerant to BPPB than HTLA 230 ([1]; 48 h): 2.9 times
- IC50 ([1]; 48 h exposure, 0.1–2 µM, read-out: IC50 HTLA ER): 1.35 ± 0.052 µM
- concentration causing significant reduction in viability of cells ([1]; 72 h): ≥ 1.00 µM
- HTLA ER more tolerant to BPPB than HTLA 230 ([1]; 72 h): 3.1 times
- IC50 ([1]; 72 h exposure, 0.1–2 µM, read-out: IC50 HTLA ER): 1.2 ± 0.0695 µM
- IC50 lower than that determined with ETO ([1]; HTLA ER, 24 h, ETO value ref 16): 478 fold
- IC50 ([1]; over 24, 48, 72 h exposure, read-out: IC50 on MDR HTLA ER): 1.2 to 1.35 µM
- cell viability ([2]; 0.25 µM, 72 h): 47.6%
- cell viability ([2]; 0.5 µM, 48 h): 41.8%
- cell viability ([2]; 0.75 µM, 24 h): 42.5%
- concentration causing significant reduction in cells' viability ([2]; 24 h): ≥ 0.5 µM
- cell viability ([2]; 24 h, concentrations ≥ 0.75 µM up to 2 µM): 39.3–45.3%
- cytotoxic effects vs. HTLA 230 higher than vs. HTLA ER ([2]; 24 h): 25.3%
- IC50 ([2]; 24 h exposure, 0.1–2 µM, read-out: IC50 HTLA 230): 0.926 ± 0.164 µM
- concentration causing significant reduction in cells' viability ([2]; 48 h): ≥ 0.1 µM
- cell viability ([2]; 48 h, concentrations ≥ 0.5 µM up to 2 µM): 36.2–41.9%
- cytotoxic effects vs. HTLA 230 higher than vs. HTLA ER ([2]; 48 h): 65.9%
- IC50 ([2]; 48 h exposure, 0.1–2 µM, read-out: IC50 HTLA 230): 0.462 ± 0.103 µM
- concentration causing significant reduction in cells' viability ([2]; 72 h): ≥ 0.25 µM
- cytotoxic effects vs. HTLA 230 higher than vs. HTLA ER ([2]; 72 h): 67.5%
- cell viability ([2]; 72 h, lowest value reached with increasing concentrations (up to 2 µM)): 21.7%
- IC50 ([2]; 72 h exposure, 0.1–2 µM, read-out: IC50 HTLA 230): 0.389 ± 0.0836 µM
- more cytotoxic than TiO2-Ta nanoparticles ([2]; HTLA 230 and HTLA ER vs. SH-SY5Y, 24 h): 64–86 fold
- anticancer effects higher than compound 3 with PDT/SDT ([2]; HTLA 230 and HTLA ER, 24 h): 10.3–14.7 times
- more potent than Ag20Pep ([2]; HTLA 230 and HTLA ER, 24 h): 105–143 times
- more potent than Ag40Pep ([2]; HTLA 230 and HTLA ER, 24 h): 132–182 times
- more potent than Ag20Pep ([2]; HTLA 230 and HTLA ER, 48 h): 18–54 times
- more potent than Ag40Pep ([2]; HTLA 230 and HTLA ER, 48 h): 29–90 times
- cytotoxicity higher than that of compounds 9–13 of Skrzypczak et al. ([2]; HTLA 230 and HTLA ER, 72 h): 1.7–5.1 fold
- more cytotoxic than AgNPs ([2]; HTLA 230 and HTLA ER, 72 h): 4–30 times
- IC50 ([2]; over 24, 48, 72 h exposure, read-out: IC50 values towards drug-sensitive HTLA 230): 0.4 to 0.9 µM
